How the values were obtained:
Hep3B = experiment: Pharmacodynamic in vivo, Hep3B model tumor growth inhibition; set-up: species or system NOD-SCID mice; conditions: 60 mg/kg QD, gavage
From the text: The Hep3B cell line was purchased from ATCC; MEM cell culture medium, fetal bovine serum, and trypsin were purchased from Gibco; cell culture flasks were purchased from Greiner; and disposable Cell Counting Plate and taittinger Blue Solution Purchased from Bio-Rad. The disposable sterile syringe was purchased from Changzhou Jinlong Medical Plastic Instrument Co., Ltd, eye surgical scissors and eye surgical forceps were purchased from Shanghai Medical Instrument (Group) Co., Ltd. Surgical Instrument Factory, and 6-8 week old female NOD-SCID mice were purchased from Vitalivar.
a. One strain of Hep3B cells was taken out from the cell bank and MEM medium (MEM+10% FBS+1% PS) was used to recover the cells. The resuscitated cells were placed in a cell culture flask (the wall the flask was marked with the cell type, date, cultivator's name), and the cell culture flask was placed in a CO2 incubator (the temperature of the incubator was 37° C. and the CO2 concentration of the incubator was 5%);
b. When the cells covered about 90% of the bottom of the culture flask, passage was conducted. the cells were continued to cultivate in a CO2 incubator after passage. The above process was repeated until the number of the cell satisfied the requirements of pharmacodynamic in vivo;
c. The cultured cells were collected and counted using a BIO-Rad TC20 cell counter. According to the counting results, the cultured cells were resuspended with PBS and matrix gel (1:1) to obtain a cell suspension (density 5×10^7/ml), and the cell suspension was placed in an ice box for later use.
a. The cells were mixed well before seeding, and 0.5 ml of cell suspension was taken with a 1 ml syringe and bubbles in the cell suspension were removed. The syringe with the cell suspension was place on an ice pack for later use.
b. The NOD-SCID mice were set with the left hand, and the skin on the right back of the mice was disinfected with 75% alcohol. The inoculation was beginning after 30 seconds.
c. During inoculation, 1 mL syringe was on the right hand, and the cell suspension of Hep3B was inoculated subcutaneously into the right shoulder of the right back of the mouse at 0.1 mL/mouse. At inoculation interval, the syringe was placed on an ice pack and the mice were inoculated sequentially.
d. According to the tumor growth, the tumor was measured and the tumor size was calculated on the 12-15 days after inoculation.
Tumor volume calculation: tumor volume (mm^3)=length (mm)×width (mm)×width (mm)/2
e. When the tumors grew to an average volume of 100-150 mm^3, the mice were randomly divided into two groups according to tumor size and the weight of the mouse. […]
f. […] Tumors were measured and the mice were weighed twice a week after administration. […]

[1] = PK/PD of NOD-SCID mouse (drug concentration in blood and in tumors); format: in vivo; conditions: NOD-SCID, mouse, po, 50 mg/kg, p.o. (50 mg/kg); for AUC(0-t): read-out: AUC0-6 h; for concentration at 4 h / concentration at 6 h: tumor
Protocol: This experiment conducted when the pharmacological experiment in vivo was performed by gavage administration, wherein, the blood samples and tumor samples were taken at different time points to detect drug concentration in blood and drug concentrations in tumors.
(1) Mode of administration: gavage administration;
(2) Dosage: 50 mg/kg in the gavage administration;
Three mice were sampled at each sampling point;
(4) Blood sample collection: 200 μL of orbital blood was collected at sampling time point for each blood sample. After anticoagulation with heparin, the blood was centrifuged at 5500 rpm for 10 mins. 60 μL of the supernatant was taken and put it into the refrigerator at −80° C. for waiting for testing.
Tumour sample collection: 200-300 mg of each tumor tissue was taken. The tumor weight was marked, quickly freezed in liquid nitrogen and placed into a refrigerator at −80° C. for waiting for testing.
Tumour sample processing: pure water was added into the tumor sample according to a ratio of […] between the weight of the tumor sample and the volume of pure water and then it was homogenized. The homogenate was stored at −90° C. to −60° C. until the sample was analyzed. After 5 μL of acetonitrile/water (v/v=1:1) was added into 50 μL of tumor sample homogenate, 200 μL of acetonitrile (containing Dexamethasone 100 ng/ml as internal standard, or containing Verapamil 2 ng/ml as internal standard) was added. After protein precipitation, the resulting mixture was vortexed for 2 mins at 4° C. with 4600 g, and then centrifuged for 15 mins to obtain the supernatant. 100 μL of the supernatant was taken and added into 200 μL of deionized water. 5500 LC/MS/MS analyser was used for sample injection and analysis, after vortexing for homogeneity. The conditions for chromatographic separation and mass spectrometric analysis were as follows: […]

PK analysis of rats = format: in vivo; conditions: rat, plasma, po, SD rats, p.o. (10 mg/kg)
Protocol: In the present invention, the pharmacokinetics experiment of the compounds in rats was performed using the SD rats (Vitolihua).
(1) Mode of administration: single gavage administration and intravenous injection administration.
(2) Dosage: 10 mg/kg in the gavage administration, 3 mg/kg in the intravenous injection administration.
Gavage administration: before administration, 15 min, 30 min, 1 h, 2 h, 4 h, 6 h, 8 h, 24 h; […]
(4) Sample processing: 200 μL of orbital blood was collected at each sampling time point. After anticoagulation with heparin, the blood was centrifuged at 5500 rpm for 10 min, and 60 μL of the supernatant was taken and put into the refrigerator at −80° C. for waiting for testing.
Samples obtained after administration of Compound 1 were tested using 4000 LC-MS/MS analyzer, wherein, the chromatographic separation conditions for testing were:
Samples obtained after administration of Compound 7 were tested using 4000 LC-MS/MS analyzer, wherein, the chromatographic separation conditions for testing were:
Samples obtained after administration of Compound 16 were tested using 4000 LC-MS/MS analyzer, wherein, the chromatographic separation conditions for testing were: […]

[2] = test system: Hepatoma cell Hep3B (high expression of FGFR4 and FGF19); experiment: Hepatoma cell proliferation inhibition experiment (MTS method); format: cell-based; conditions: Homo sapiens, Hep3B; 120 h incubation; read-out: Hep3B(IC50 μM)
From the text: In this experiment, the MTS method was used to test the inhibitory effect of the compounds on the proliferation of Hepatoma cell Hep3B (high expression of FGFR4 and FGF19), and the half inhibitory concentration IC50 of the compounds to Hep3B was obtained. The Hep3B cell line was purchased from ATCC, and the complete culture medium of the Hep3B cell line was MEM+10% FBS+1% PS. MEM cell culture medium, fetal bovine serum, and trypsin were purchased from Gibco, cell culture flasks were purchased from Greiner, and disposable Cell Counting Plate and Taittinger Blue Solution were purchased from Bio-Rad.
(1) 100 μl Hepatoma cell Hep3B suspension was seeded in a 96-well cell culture plate, and the density of each well was 2.0×10^4 cells/ml.
(3) A mixture of MTS (3-(4,5-dimethylthiazol-2-yl)-5-(3-carboxymethoxyphenyl)-2-(4-sulfophenyl)-2H-tetrazolium)/PMS (phenazine methosulfate) was added into each well for coloration, and MTS/PMS in the mixture was at a ratio of 20:1 (ml:ml). 30 μl of the mixture was added into each well of the culture plate above mentioned in step (2), then the culture plate was incubated for 3 h in the incubator.
(5) The inhibition rate was calculated by the […];
(6) According to the inhibition rate of the different concentrations, the IC50 values of the compounds were obtained by curve fitting.

AUC(0-inf) ([1]; plasma, Hep3B model): 29100 ng·h/mL
Cmax ([1]; plasma, Hep3B model): 6200 ng/mL
Tmax ([1]; plasma, Hep3B model): 1 h
half-life ([1]; plasma, Hep3B model): 3.13 h
AUC(0-t) ([1]; plasma, Hep3B model): 20200 ng·h/mL
Cmax ([1]; plasma, SNU878 model): 5430 ng/mL
Tmax ([1]; plasma, SNU878 model): 4 h
AUC(0-t) ([1]; plasma, SNU878 model): 20400 ng·h/mL
concentration at 4 h ([1]; Hep3B model): 64.4 ng/g
concentration at 6 h ([1]; Hep3B model): 44.1 ng/g
concentration at 4 h ([1]; SNU878 model): 3560 ng/g
concentration at 6 h ([1]; SNU878 model): 1030 ng/g
AUC(0-t) (PK analysis of rats; read-out: Curve area AUC0-24 h): 1590 ng·h/mL
Cmax (PK analysis of rats; read-out: Drug concentration in blood Cmax): 350 ng/mL
IC50 [2]: 0.024 µM
Compound: COCCNc1cc(NC(=O)N2CCCc3cc(CN4CCN(C)CC4=O)c(C=O)nc32)ncc1C#N [Reference compound, roblitinib, reference compound]
TGI % (Hep3B): 97.7%

From patent US11136320B2, “Fused ring derivative used as FGFR4 inhibitor” (JACOBIO PHARMACEUTICALS CO., LTD., priority 2019, dated 2021)
